{"source": "patent US20220305137A1", "about": "“DRUG CONTAINING TARGETING LIPOSOMES” (NEXTAR CHEMPHARMA SOLUTIONS LTD., priority 2019, published 2022)", "experiment": "Doxorubicin brain concentration after intravenous administration, LC-MS/MS", "conditions": "mice, 7.5 mg/kg intravenous", "procedure": "A study was performed to determine doxorubicin distribution after administration, when comparing three doxorubicin-containing compositions, each administered to a group of 10 male ICR mice aged 7 weeks. Composition 1 was free doxorubicin.\nAnimals were administered doxorubicin in the following amount per administration, for each of the three compositions. Composition 1, was administered in HEPES solution at a dose of 7.5 mg/kg, in a volume of 100 microliter (μl) via the intravenous route. Compositions 2 and 3 were each administered at a dose of 15 mg/kg (equivalent of doxorubicin) in a volume of 300 μl via the intravenous route.\nFive mice in each group were sacrificed one hour post administration, and five mice four hours post administration, and doxorubicin brain concentrations were determined using an LC-MS/MS method."}
{"compound": "COc1cccc2c1C(=O)c1c(O)c3c(c(O)c1C2=O)C[C@@](O)(C(=O)CO)C[C@@H]3O[C@H]1C[C@H](N)[C@H](O)[C@H](C)O1", "note": "[Composition 1, doxorubicin]", "values": [{"measurement": "doxorubicin brain concentration", "setting": "60 minutes post administration", "value": "low brain concentration"}, {"measurement": "doxorubicin brain concentration", "setting": "240 minutes post administration", "value": "low brain concentration"}]}
